According to PMC11434080, “Acetylation of Oleanolic Acid Dimers as a Method of Synthesis of Powerful Cytotoxic Agents” (Molecules, 2024):
Entries after “also recorded” stand apart in the source; their conditions may differ. Like-named read-outs stand apart in the source and are kept apart here.

Experiments:
SKBR-3 = experiment: MTT assay, SKBR-3; format: cell-based, human; conditions: for IC50: SKBR-3 human breast adenocarcinoma, value (SD); for SKBR-3 SI: Selectivity Index = IC50 HDF / IC50 SKBR-3
Procedure: (§1) The cytotoxic activity of oleanolic acid (mother compound, 1, Figure 2) and its 14 derivatives (3a–3n, Figure 2) was tested in vitro using the standard MTT method based on viability assay, e.g., [44] against carcinoma cell lines: SKBR-3, SKOV-3, PC-3, U-87, and one normal cell line: HDF.
(§2) Human cancer cells: SKBR-3 and SKOV-3 were cultured in McCoy’s Modified Medium; PC-3 was cultured in an F-12K medium; U-87 was cultured in EMEM medium; HDF was cultured in Fibroblast Basal Medium. Each medium was supplemented with 10% fetal bovine serum, 1% L- glutamine, and 1% penicillin/streptomycin solution. The cell lines were kept in an incubator at 37 °C. All the cell lines and mediums were obtained from the American Type Culture Collection (ATCC) supplied by LGC-Standards (Lomianki, Poland).
(§3) The MTT assay was conducted as described earlier, e.g., [44]. In short, this method is based on the reaction between mitochondria enzymes (dehydrogenases) of tested cell lines and 3-(4,5-dimethylthiazol-2-yl)-2,5-diphenyltetrazolium bromide (MTT). The final product of this reaction gives violet formazan crystals. The number of live cells is proportional to the amount of formazan and is represented by the violet dye reagent. The details of the experiments are given in [44].

SKOV-3 = experiment: MTT assay, SKOV-3; format: cell-based, human; conditions: for IC50: SKOV-3 human ovarian cystadenocarcinoma, value (SD); for SKOV-3 SI: Selectivity Index = IC50 HDF / IC50 SKOV-3
Procedure: as §1, §2, §3

PC-3 = experiment: MTT assay, PC-3; format: cell-based, human; conditions: for IC50: value (SD); for B SI: Selectivity Index = IC50 HDF / IC50 of PC-3
Procedure: as §1, §2, §3

U-87 = experiment: MTT assay, U-87; format: cell-based, human; conditions: for U-87 SI: Selectivity Index = IC50 HDF / IC50 U-87; for IC50: U-87 MG, MTT assay, U-87 human glioblastoma, value (SD)
Procedure: as §1, §2, §3

HDF = experiment: MTT assay, HDF normal cell line; format: cell-based; conditions: Homo sapiens, value (SD)
Procedure: as §1, §2, §3

[1] = test system: SKBR-3, SKOV-3, PC-3, and U-87 cancer cell lines; experiment: MTT assay, four cancer cell lines taken together; format: cell-based, human; conditions: for IC50: MTT, across SKBR-3, SKOV-3, PC-3, U-87; for Selectivity Index value: IC50 HDF / IC50 cancer cell line, across the four cancer lines; for level of cytotoxic activity relative to oleanolic acid (1): four cancer cell lines, times more active than oleanolic acid (1)
Procedure: as §1, §2, §3

DPPH antioxidant assay = conditions: Figure 3
From the text: The results of the antioxidant activity of oleanolic acid (1) and Acetylated Oleanolic Acid Dimers (AcOADs) 3a–3n evaluated with CUPRAC and DPPH assays are given in Figure 3. The results are presented as % inhibition of the copper(II) ions and Trolox equivalent (blue bars) calculated from the standard curve, presented in the Supplementary Materials (Supplementary Materials S02, Figure S1) and as % inhibition of the DPPH radical and Trolox equivalent (pink bars), calculated from the standard curve presented in the Supplementary Materials (Supplementary Materials S02, Figure S2).
The CUPRAC reagent (7.5 mM ethanolic 96% neocuproine solution, 10 mM CuCl2 × H2O solution, and an ammonium acetate buffer of pH 7.0) and DPPH reagent (2,2-diphenyl-1-picrylhydrazyl 0.2 mM solution) were applied.
The DPPH assay relies on the ability of an antioxidant to donate a hydrogen atom or an electron to the stable DPPH radical, resulting in its reduction and subsequent color change. In contrast, the CUPRAC method measures the reducing power of a sample by quantifying its ability to convert the Cu-neocuproine reagent complex into the Cu(I) form. The results are presented as % inhibition of the copper(II) ions and Trolox equivalent (blue bars) calculated from the standard curve (Supplementary Materails S02, Figure S1) and as % inhibition of the DPPH radical and Trolox equivalent (pink bars), calculated from the standard curve (Supplementary Materials S02, Figure S2). The details of the experiments are given in [46].

[2] = MTT assay, PC-3 human prostate carcinoma, read-out: B IC50 (SD)

| SMILES | IC50 (SKBR-3; SK-BR-3, MTT assay) [µM] | SKBR-3 SI (SKBR-3) | IC50 (SKOV-3; SK-OV-3, MTT assay) [µM] | SKOV-3 SI (SKOV-3) | IC50 (PC-3; [2]) [µM] | B SI (PC-3) | U-87 SI (U-87) | IC50 (U-87) [µM] | IC50 (HDF) [µM] | IC50 ([1]; Homo sapiens) [µM] | Selectivity Index value [1] | IC50 [1] [µM] | IC50 (SKBR-3; Homo sapiens, SK-BR-3, MTT assay) [µM] | IC50 (SKOV-3; Homo sapiens, SK-OV-3, MTT assay) [µM] | IC50 (PC-3; Homo sapiens, PC-3, read-out: B IC50 (SD), MTT assay, PC-3 human prostate carcinoma) [µM] | IC50 (U-87; Homo sapiens) [µM] | IC50 (HDF; HDF) [µM] | level of cytotoxic activity relative to oleanolic acid (1) [1] | DPPH activity (in words) (DPPH antioxidant assay) |
| --- | --- | --- | --- | --- | --- | --- | --- | --- | --- | --- | --- | --- | --- | --- | --- | --- | --- | --- | --- |
| CC(=O)OC1CCC2(C)C(CCC3(C)C2CC=C2C4CC(C)(C)CCC4(C(=O)OCCCCCCCOC(=O)C45CCC(C)(C)CC4C4=CCC6C7(C)CCC(OC(C)=O)C(C)(C)C7CCC6(C)C4(C)CC5)CCC23C)C1(C)C (stereo not drawn) [Compound 3i] | 2 | 0.92 | 1.93 | 0.96 | 1.9 | 0.97 | 0.93 | 1.98 | 1.85 | ~2 | lower than 1 | ≤ 2 | – | – | – | – | – | – | – |
| CC(=O)OC1CCC2(C)C(CCC3(C)C2CC=C2C4CC(C)(C)CCC4(C(=O)OCC=CCOC(=O)C45CCC(C)(C)CC4C4=CCC6C7(C)CCC(OC(C)=O)C(C)(C)C7CCC6(C)C4(C)CC5)CCC23C)C1(C)C (stereo not drawn) [Compound 3f] | – | 0.57 | – | 0.58 | – | 0.60 | 0.59 | – | – | 4.65 to 7.06 | about 0.5 | – | 7.06 | 6.92 | 6.7 | 6.8 | 4.02 | approximately 3 times | – |
| CC(=O)OC1CCC2(C)C(CCC3(C)C2CC=C2C4CC(C)(C)CCC4(C(=O)OCCCCCCCCCOC(=O)C45CCC(C)(C)CC4C4=CCC6C7(C)CCC(OC(C)=O)C(C)(C)C7CCC6(C)C4(C)CC5)CCC23C)C1(C)C (stereo not drawn) [Compound 3k] | 2.61 | 0.74 | 2.66 | 0.73 | 2.45 | 0.79 | 0.92 | 2.1 | 1.94 | ~2 | – | – | – | – | – | – | – | – | higher antioxidant activity than OA |
| CC(=O)OC1CCC2(C)C(CCC3(C)C2CC=C2C4CC(C)(C)CCC4(C(=O)OCCCCCCCCCCOC(=O)C45CCC(C)(C)CC4C4=CCC6C7(C)CCC(OC(C)=O)C(C)(C)C7CCC6(C)C4(C)CC5)CCC23C)C1(C)C (stereo not drawn) [Compound 3l] | 5.91 | 0.61 | 5.95 | 0.61 | 5.95 | 0.61 | 0.66 | 5.47 | 3.62 | 4.65 to 7.06 | – | – | – | – | – | – | – | approximately 3 times | higher antioxidant activity than OA; also recorded: highest activity; also recorded: extremely high DPPH activity |
| CC(=O)OC1CCC2(C)C(CCC3(C)C2CC=C2C4CC(C)(C)CCC4(C(=O)OCCCCCOC(=O)C45CCC(C)(C)CC4C4=CCC6C7(C)CCC(OC(C)=O)C(C)(C)C7CCC6(C)C4(C)CC5)CCC23C)C1(C)C (stereo not drawn) [Compound 3g] | 4.65 | 1.22 | 4.23 | 1.34 | 4.1 | 1.38 | 1.38 | 4.09 | 5.66 | 2.5 to 4.5 | higher than 1.00 | – | – | – | – | – | – | – | – |
| CC(=O)OC1CCC2(C)C(CCC3(C)C2CC=C2C4CC(C)(C)CCC4(C(=O)OCCCOC(=O)C45CCC(C)(C)CC4C4=CCC6C7(C)CCC(OC(C)=O)C(C)(C)C7CCC6(C)C4(C)CC5)CCC23C)C1(C)C (stereo not drawn) [Compound 3c] | 3.82 | 0.80 | 3.15 | 0.97 | 2.94 | 1.04 | 0.99 | 3.11 | 3.07 | 2.5 to 4.5 | lower than 1 | – | – | – | – | – | – | – | – |
